What all share (experiment): Gene expression in rat skin tissue after subcutaneous administration (qPCR)
Type in all cases: in vivo, Wistar Rat
What all share (conditions): rat back skin, 2.5, 0.1 or 0.02 µg/portion, tissue after 8 weeks, relative to no PG administration
On the technique in general: In qPCR the cycle at which signal appears reflects the starting amount.

One test relates to CD34. The protocol: (§1) Next, change in gene expression in a tissue was checked. As a subject, 12 weeks old Wistar Rat (male) was used. Regarding a 2.5 µg/portion administration group, three regions were set on the back from the head to the tail, and each of these regions was divided into two regions on both left and right sides of the spine to set six regions on the back in total. In such an administration group, PG was administered to two portions around the center of each of the six regions. Specifically, in the 2.5 µg/portion administration group (n = 3), 2.5 µg (20 µL) of PG was administered per portion. Besides, regarding a 0.1 µg/portion administration group and a 0.02 µg/portion administration group, two regions were set from the head to the tail, and each of these regions was divided into two regions on both left and right sides of the spine, and thus, four regions in total were set on the back. In such an administration group, PG was administered to two portions around the center of each of the four regions. Specifically, in the 0.1 µg/portion administration group (n = 3), 0.1 µg (20 µL) of PG was administered per portion, and in the 0.02 µg/portion administration group (n = 2), 0.02 µg (20 µL) of PG was administered per portion. It is noted that a distance between the two portions was 1 cm. After 8 weeks, a tissue was collected with a 3 mm punch after shaving a portion on the center of the injected portion.
(§2) The collected tissue piece was frozen with liquid nitrogen, and stored at -80° C. […] For gene expression analysis by quantitative PCR, design and synthesis of a gene specific primer and a probe were entrusted to Integrated DNA Technologies, Inc. (Skokie, IL, USA), and an expression level of a target gene was analyzed with Prime Time Gene Expression Master Mix reagent (Integrated DNA Technologies, Inc., Skokie, IL, USA) and a Rotor-Gene Q PCR device (QIAGEN GmbH, Hilden, Germany). […]

In another test the test system is CD163. The method, then:
as §1, §2

For another test, the system named is CD68. The method, then: as §1, §2

As for `CCc1ccc(CCOc2ccc(CC3SC(=O)NC3=O)cc2)nc1` (stereo not drawn) [pioglitazone], the “expression of CD34” value with CD34 is “found to increase”. Besides, the “expression of CD163” value in the test on CD163 is given as “found to simultaneously increase”. Also, the “expression of CD68” value with CD68 is on record as “found to simultaneously increase”.

Source of the values: patent US20230181553A1, “COMPOSITION FOR HAIR IMPROVEMENT” (Dr. Cherry Inc., priority 2020, published 2023).
